The subject of one test is CRAF. Briefly: CRAF ubiquitination (IP of MBP-CRAF-FLAG, ubiquitin immunoblot). It counts as cell-based, human (HEK293). The settings on record: HEK293, MBP-CRAF-FLAG, 50 μM braftide, bortezomib pretreatment. On the procedure: (§1) HEK293 cells were seeded at 1(10)^6 cells per well for a 6-well plate or 5(10)^6 for 10 cm dishes and incubated until 40% to 60% confluency. Transfection was carried out using a 1:3 DNA:PEI-MAX ratio in OPTI-MEM and allowed 48 h for protein expression. For peptide assays, 48 h post-transfection, cells were treated with TAT–braftide carried in OPTI-MEM at indicated concentrations. Cells were harvested in cold PBS. Harvested cells were lysed in 4% SDS or modified radioimmunoprecipitation assay (RIPA) for co-IP experiments. Quantification of total protein by the bicinchoninic acid assay was carried out according to the manufacturer's protocols (Pierce; catalog no.: 23225).
(§2) Transfected HEK293 cells were treated with the indicated treatments and harvested in cold PBS. […] Samples were analyzed via immunoblot.
(§3) Western blot band densities were quantified with ImageJ software (National Institutes of Health) and normalized to the indicated loading control. Statistical significance was determined through one-/two-way ANOVA, where indicated, followed by Tukey's honest significant difference post hoc test with corresponding p values (∗p < 0.05, ∗∗p < 0.002, ∗∗∗p < 0.0002, and ∗∗∗∗p < 0.0001). […]

The test system of test [1] is MAPK proteins (BRAF, CRAF, MEK, pMEK, ERK, pERK). Briefly: Immunoblot of MAPK proteins in HCT116 cells. It counts as cell-based. On the procedure:
(§4) Western blot band densities were quantified with ImageJ software (National Institutes of Health) and normalized to the indicated loading control. Statistical significance was determined through one-/two-way ANOVA, where indicated, followed by Tukey's honest significant difference post hoc test with corresponding p values (∗p < 0.05, ∗∗p < 0.002, ∗∗∗p < 0.0002, and ∗∗∗∗p < 0.0001). All graph bars represent the mean ± SD with individual data points per biological replicate with corresponding p values.
On the technique in general: A western blot detects proteins with antibodies after separation by electrophoresis.

In another test the test system is CDC37–BRAF interaction. Briefly: Co-IP of CDC37-FLAG with BRAF-V5 in HCT116. It counts as cell-based. To be noted: HCT116, 5 µM braftide, three biological replicates. On the procedure:
as §1, §2, §3

Test [2] has as its system HCT116 cells. Briefly: WST-1 cell viability assay, HCT116. It counts as cell-based. The settings on record: HCT116, WST-1, 24 h.
Procedure: (§5) HCT116 and WM3629 cells were seeded onto polylysine-coated, clear-bottomed, 96-well plates at 15(10)^3 cells per well and allowed to incubate for 24 h. Cells were treated with braftide and 17-AAG mixtures at indicated concentrations for 24 h (37 °C). The WST-1 cell viability assay was carried out according to the manufacturer's protocols (Roche; 11644807001) for 4 h, and absorbance readings were taken at 450 nM in a CLARIOstar plate reader. For the dose–response curves of braftide and 17-AAG, the data were fit to the 4-parameter logistic equation (dose–response fitting equation) in GraphPad Prism (Dotmatics): y=A1+(A2−A1)÷(1+10^(LOGx0−x)p)
(§6) Error bars are indicative of the SEM of each point.
Test [3] relates to BRAF–CDC37/HSP90 chaperone complex. Description: Co-IP of BRAF-FLAG with endogenous CDC37–HSP90 chaperone complex. It counts as cell-based, human (HEK293). The settings on record: HEK293, 50 μM braftide, 4 h, bortezomib pretreatment, three biological replicates. On the procedure:
as §1, §2, §3

The subject of test [4] is HCT116 cells. Briefly: Annexin V apoptosis assay, HCT116. It counts as cell-based. To be noted: for apoptotic cell death, braftide + 17-AAG combination versus 17-AAG monotherapy: HCT116, Annexin V, n=3, Fig. S12, B and C. On the procedure: HEK293 cells and HCT116 cells were treated with either control or braftide at the indicated concentrations for 4 h. After treatment, both the floating and adherent cell populations were collected and adjusted with PBS (final concentration: 1 × 10^5 cells/ml). The cells were then mixed with the Annexin V (Cytex; FCCH100108) reagent in a 5:1 ratio (100 μl of cells mixed with 20 μl of Annexin V reagent) and allowed to stain in the dark, at room temperature for 15 min. The cells were then analyzed on a Guava Muse Cell Analyzer (Millipore).

For test [5], the system named is CRAF–CDC37/HSP90 chaperone complex. Description: Co-IP of MBP-CRAF-FLAG with endogenous CDC37–HSP90 chaperone complex. It counts as cell-based, human (HEK293). To be noted: HEK293, 50 μM braftide, 4 h, bortezomib pretreatment, three biological replicates. On the procedure: as §1, §2, §3
The test system of another test is BRAF–CRAF protein levels. To be noted: cited from earlier work. From the text: RAF family members are known clients of the HSP90–CDC37 chaperone complex and rely on their interaction with the CDC37–HSP90 chaperone complex to maintain basal protein stability ([4]). […] Although the HSP90 and CDC37 interface is vast and dynamic ([7]), the αC helix–β4 loop is a well-defined structural motif conserved across RAF and other kinases ([29]). The RAF DIF, being ...

Test [6] deals with WM3629 cells. Briefly: WST-1 cell viability assay, WM3629. To be noted: WM3629, WST-1, 24 h. It counts as cell-based. (Tetrazolium dyes change colour on reduction, which living cells bring about.)
Procedure: as §5, §6
Another test concerns CDC37–HSP90 interaction. Description: Co-IP of CDC37-FLAG with HSP90 in HEK293. It counts as cell-based, human (HEK293). The settings on record: HEK293, 25 μM braftide, bortezomib pretreatment. Here is the method: as §1, §2, §3
Test [7] has as its system WM3629 cells. The settings on record: WM3629, reported; read-out: EC50, braftide, WM3629; cited from earlier work. From the text: Based on the observed synergistic effects of inhibiting the ternary complex, the antiproliferative effects were explored using combinatorial treatment in two RAF-dimer–dependent cell lines: HCT116 and WM3629. HCT116 cells mainly rely on the wildtype BRAF–CRAF heterodimer and BRAF–BRAF homodimer to relay the MAPK signal, whereas WM3629 cells contain the BRAF D594G mutant, which is a kinase-dead mutant and depends on dimerization with CRAF for activation ([34]).

A further test relates to CDC37–AKT1 interaction. Briefly: Co-IP of CDC37-FLAG with AKT1. It counts as cell-based, human (HEK293). To be noted: HEK293, 25 µM braftide, bortezomib pretreated, n=4. On the procedure: as §1, §2, §3
Test [8] deals with selected kinases in HCT116 cells. Briefly: Immunoblot of selected kinases in HCT116 cells. It counts as cell-based. The settings on record: Western blot; for protein levels of Chk2, PKCδ, and SRPK1: HCT116, braftide, Fig. S12A. Here is the method:
as §4

The subject of test [9] is MAPK proteins (BRAF, CRAF, MEK, pMEK, ERK, pERK). The settings on record: HCT116, braftide alone; cited from earlier work. Here is the method:
HCT116 cells were treated with 17-AAG alone or in combination with braftide (Fig. 5, C and D). HSP90 monotherapy (17-AAG) depleted CRAF kinase level at a concentration of 2 μM (Fig. 5C), whereas braftide monotherapy ([23]) depleted RAF kinase levels at a concentration of 10 μM. To investigate potential synergy, we assessed combinatorial treatments in HCT116 cells, using a fixed concentration of 500 nM of the primary drug (braftide) with increasing concentrations (0 to 1 μM) of the secondary drug (17-AAG) (Fig. 5D).

This is an account of results in article PMC12830207, “Targeting the protein–protein interaction between the CDC37 cochaperone and client kinases by an allosteric RAF dimer breaker” (The Journal of Biological Chemistry, 2025).

“Also recorded” adds a separate entry of the source.

In general, EC50 refers to the concentration at which the effect is half-maximal. Consider “GRKKRRQRRRPQ-miniPEG-TRHVNILLFM [Braftide]”, for which the CRAF ubiquitination entry in the test on CRAF is reported as “increased CRAF ubiquitination”. In addition, in [1] (HCT116, 500 nM single agent, immunoblot), the “inhibition by monotherapy at 500 nM” value is on record as “Neither 17-AAG nor braftide monotherapy exhibited obvious inhibition”. Moreover, the “MAPK pathway protein levels, proteomics samples” value in [1] (HCT116, 10 µM braftide, 1 hr, 37°C, n=3) is “decreases MAPK pathway protein levels”. Moreover, the “CDC37–BRAF interaction” value with CDC37–BRAF interaction was “decreases its association with coimmunoprecipitated BRAF-V5 and CRAF-HA”; with CDC37–BRAF interaction (listed as braftide) it was “reduced the CDC37–RAF interaction at lower doses than in HEK293 cells”. Further, the “synergy of braftide and 17-AAG, HCT116” value in the test on HCT116 cells [2] is “synergy between braftide and 17-AAG”. The “association of BRAF with CDC37 and HSP90” value in test [3] is “reduced their association with CDC37 and HSP90 compared with the nontreated control”. Further, in the test with HCT116 cells [4] (0, 5, 10, 25, 50, 75, and 100 μM braftide, 4 h, n = 3, listed as braftide), the “apoptosis (Annexin V), HCT116” value is recorded as “triggered dose-dependent apoptosis; also recorded: HCT116 cells showed higher sensitivity to braftide compared with HEK293”. In addition, the “apoptotic cell death, braftide + 17-AAG combination versus 17-AAG monotherapy” value in the test on HCT116 cells [4] was “synergizes with 17-AAG in HCT116 cells to trigger cell death at lower treatment concentrations”; in the test on HCT116 cells [4] (listed as braftide) it was “significant increase in apoptotic cell death with the combination therapy compared with monotherapy”. Besides, the “association of CRAF with CDC37 and HSP90” value in [5] is “reduced their association with CDC37 and HSP90 compared with the nontreated control”. Also, in the test on BRAF–CRAF protein levels, the “degradation of BRAF–CRAF protein levels” value is reported as “induces the degradation of BRAF–CRAF protein levels through the ubiquitin-26s proteasomal degradation system”. In the test with WM3629 cells [6], the “synergy of braftide and 17-AAG, WM3629” value is “synergy between braftide and 17-AAG”. The “CDC37–HSP90 interaction” value with CDC37–HSP90 interaction was “maintaining the CDC37–HSP90 interaction”. Also, in the test with WM3629 cells [7], the EC50 was 11.1 ± 1.12 µM. Also, the “association of CDC37 with AKT1” value in the test on CDC37–AKT1 interaction was “disrupts client AKT1 from CDC37-FLAG in HEK293 cells”; with CDC37–AKT1 interaction (listed as braftide) it was “reduced association of CDC37 with AKT1”. Moreover, the “protein expression levels of downregulated kinases” value in [8] (HCT116, 10 μM braftide, 1 h, n = 9) was “reduced protein expression levels of GSK3α, S6, AKT1, TAK, FAK, BRAF, CRAF, MEK1/2, and ERK1/2”. The results for the “protein levels of Chk2, PKCδ, and SRPK1” value in test [8] and in test [8] (listed as braftide) were “unaffected by Braftide treatment” and “protein levels of these kinases remain unchanged after braftide treatment”, respectively. Besides, the “concentration at which RAF kinase levels are depleted, braftide monotherapy” value in test [9] is 10 µM.
